Measured values from patent US11661437B2, “Steroid derivative regulators, method for preparing the same, and uses thereof” (priority 2018, dated 2023).

Key:
GABA-A receptor = experiment: 35S-TBPS binding assay on rat cerebral cortex cell membrane; set-up: species or system Sprague-Dawley rat; details: 2 nM 35S-TBPS, GABA added, read-out: 35S-TBPS bindng test, IC50 on inhibiting the TBPS binding activity
How it was run: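 Male Sprague-Dawley rat cortical membranes in PBS were preincubated 5 min at 25 °C with compound (8-point 3-fold series […], 1% DMSO), then with GABA ([…]). 2 nM 35S-TBPS was added for 20 h at 4 °C, followed by GF/C filtration and scintillation counting. % inhibition was normalised to DMSO and 10 μM reference controls, with IC50 from a 4-parameter fit.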

CD-1 mice = experiment: In vivo pharmacodynamic test in the PTZ-induced epilepsy model in mice; details: 3 mpk p.o., PTZ 120 mg/kg s.c., 30 min observation
Method: The PTZ-induced epilepsy model in CD-1 mice was established, and the antiepileptic effect of the compounds of Example 5 and Example 23 was evaluated using this model.
30 male CD-1 mice were purchased from Beijing Vital River Laboratory Animal Technology Co. Ltd. The test animals were adapted at the animal room in the third building of Shanghai ChemPartner Co., Ltd for 7 days before the test. The average body weight of the animals on the test day was 32.2±0.2 grams. Feeding environment: 5 animals/cage, room temperature 23±2° C., 12/12 hours of light and dark cycle, free access to food and water.
1) Vehicle/PTZ: 0.5% CMC-Na+1% Tween-80 (10 ml/kg, p.o.), administrated 0.5 hr before the PTZ administration; PTZ ([…], s.c.), administrated before the test;
2) 3 mg/kg of the compounds of Examples/PTZ: the compounds of Example 5 and Example 23 (3 mg/kg, 10 ml/kg, p.o.), administrated 0.5 hr before the PTZ administration; PTZ ([…], s.c.), administrated before the test.
3) The compounds of Example 5 and Example 23 were administrated respectively 1 hour before the PTZ administration, or 0.5% CMC-NA+1% Tween-80, the compounds of Example 5 and Example 23 were administrated respectively 0.5 hour before the PTZ administration;
4) PTZ (120 mg/kg) was administrated subcutaneously before the test observation, and this time point was recorded as the observation start point;
6) The possible side effects induced by the drug after the administration were observed and recorded, which can be divided into four levels: • None: normal • Mild sedation • Moderate sedation • Severe sedation
The mice were randomly grouped, marked and weighed; 10 mice per group. The test compound was administrated orally at an administration volume of 10 mL/kg 30-60 minutes before the PTZ administration.
PTZ (120 mg/kg) was administrated subcutaneously before the test observation, and this time point was recorded as the observation start point; after the administration of PTZ, the animal was immediately placed in the observation box and observed for 30 minutes, and the followings were recorded: a) the incubation period of the first clonic seizure, b) the incubation period of the first generalized tonic seizure, c) the number of clonic seizures, d) the number of generalized tonic seizures, e) the time when the animal died.
All measurement data were expressed as Mean±SEM, and analysed with Prism 6.0 statistical software.

C[C@@]1(O)CC[C@@]2(F)[C@H](CC[C@H]3[C@@H]4CC[C@H](C(=O)Cn5cc(C#N)cn5)[C@@]4(C)CC[C@@H]32)C1 [Example 2, 1-(2-((3R,5R,8S,9S,10R,13S,14S,17S)-10-Fluoro-3-hydroxy-3,13-dimethylhexadecahydro-1H-cyclopenta[a]phenanthren-17-yl)-2-oxoethyl)-1H-pyrazole-4-carbonitrile]
IC50 (GABA-A receptor): 11.8 nM

C[C@@]1(O)CC[C@@]2(F)[C@H](CC[C@H]3[C@@H]4CC[C@H](C(=O)Cn5ccc(C(F)(F)F)n5)[C@@]4(C)CC[C@@H]32)C1 [Example 5, 1-((3R,5R,8S,9S,10R,13S,14S,17S)-10-Fluoro-3-hydroxy-3,13-dimethylhexadecahydro-1H-cyclopenta[a]phenanthren-17-yl)-2-(3-(trifluoromethyl)-1H-pyrazol-1-yl)ethan-1-one]
IC50 (GABA-A receptor): 8.3 nM
Incubation period of the clonic seizure Mean ± SEM (CD-1 mice): 644.5 ± 122.0 s
Incubation period of the generalized tonic seizure Mean (CD-1 mice): 1576.7 ± 108.8 s
Mortality rate (CD-1 mice): 40%
Number of clonic seizures Mean (CD-1 mice): 1.8 ± 0.3
Number of generalized tonic seizures Mean (CD-1 mice): 0.4 ± 0.2
Time when the animal died Mean (CD-1 mice): 1623.0 ± 105.5 s

C[C@@]1(O)CC[C@@]2(F)[C@H](CC[C@H]3[C@@H]4CC[C@H](C(=O)CNc5ccc(F)cc5)[C@@]4(C)CC[C@@H]32)C1 [Example 23, 1-((3R,5R,8S,9S,10R,13S,14S,17S)-10-Fluoro-3-hydroxy-3,13-dimethylhexadecahydro-1H-cyclopenta[a]phenanthren-17-yl)-2-((4-fluorophenyl)amino)ethan-1-one]
IC50 (GABA-A receptor): 30.9 nM
Incubation period of the clonic seizure Mean ± SEM (CD-1 mice): 366.5 ± 21.1 s
Incubation period of the generalized tonic seizure Mean (CD-1 mice): 1519.9 ± 117.9 s
Mortality rate (CD-1 mice): 40%
Number of clonic seizures Mean (CD-1 mice): 1.8 ± 0.2
Number of generalized tonic seizures Mean (CD-1 mice): 0.4 ± 0.2
Time when the animal died Mean (CD-1 mice): 1527.7 ± 114.6 s
